For experiment [1], the system named is TNF-α production. The experiment is described as follows: TNF-α production from PMA differentiated, LPS activated THP-1 cells (ELISA). The following applies: Homo sapiens, 4 h, read-out: inhibition of TNF-α production (IC50). The experiment is classed as cell-based, human. The protocol:
The symbol * and δ represents the P≦0.03 and P≦0.006, respectively.
FIG. 2 depicts the effect of pentoxyfillin (PTX) on TNF-α production (pg/mL) Human monocytic leukemia THP-1 cells were differentiated and activated with 20 ng/mL of PMA and 50 ng/mL of LPS, respectively and incubated with different concentrations of PTX for 4h, the supernatant was analyzed for the level of TNF-α by ELISA. The symbol * represents P≦of 0.03.
THP-1 (human monocytic leukemia) cells were maintained in RPMI-1640 supplemented with 10% FBS, 2 mmol/L glutamine, 5.5 mmol/L glucose, 50 μmol/L mercaptoethanol, 1 mmol/L sodium pyruvate, and 10 mmol/L HEPES and incubated at 37° C. in 5% CO2. Cells were grown in […] culture flask until they attained 70% confluency. Cells were then plated in 24-well tissue culture plates at a concentration of 2.5×10^5 cells/mL. Cells were differentiated into macrophages using PMA at a final concentration of 20 ng/mL and further incubated at 37° C. in 5% CO2 environment for 24 h. […] After addition of the compound cells were then incubated for 4 h for TNF-α production and 18 h for IL-1β production at 37° C. in 5% CO2. The supernatants were harvested and analyzed for the level of TNF-α and IL-1β, by human TNF-α and IL-1β Duo set ELISA kits, and according to the manufacturer's instructions.

Experiment [2] deals with ROS production from mice peritoneal macrophages. The experiment is described as follows: Luminol enhanced chemiluminescence oxidative burst, mice peritoneal macrophages. The experiment is classed as cell-based. The following applies: Mus musculus, Peritoneal macrophage, serum opsonized zymosan, read-out: Myeloperoxidase dependent Oxidative Burst (IC50 μg/mL) Macrophages. As for the experimental part: Intracellular effect was determined using human peripheral whole blood phagocytes and isolated neutrophils and from mice peritoneum macrophages, where luminol-enhanced chemillumenescence assay was applied. The effect on myeloperoxidase independent ROS production was determined using lucigenin on murine macrophages RAW.267 cells.
Table 2. […] 267 cells (murine macrophages). DPI is used as standard drug. Reading presents mean±SD of three determinations.
NMRI mice of 25 to 30 gm weight were injected aseptically with 1 mL of heat inactivated fetal bovine serum (FBS) in the peritoneum cavity, using sterile 1 mL syringe and mice were kept for further 72 h. […] Cells were counted and concentration was adjusted to 1×10^6/mL for chemiluminescence assay.
Luminol enhanced chemiluminescence technique was applied to study the effect of compound on ROS from phagocytes, Using whole blood, neutrophil and macrophages Briefly, 25 μL diluted whole blood (1:50 dilution in sterile HBSS^++) or 25 μL of PMNs (1×10^6), or 25 μL of isolated macrophages (1×10^6) were incubated with 25 μL of compound in triplicates and using three different concentrations (1, 10 and 100 μg/mL) using white 96 wells plates. […] Results were monitored as relative light unit (RLU) reading, with peak and total integral values set with repeated scans at 60 seconds intervals, and 1 second points measuring time.

The test system of experiment [3] is PHA activated T cells isolated from human peripheral blood. The experiment is described as follows: Thymidine incorporation T cell proliferation assay (PHA activated). To be noted: Homo sapiens, T-cell, 72 h, read-out: Human T cell proliferation (IC50 μg/mL). The experiment is classed as cell-based. The protocol: Heparinized blood was obtained by vein puncture aseptically from healthy volunteers (25-38 years age). Blood (10 mL) was mixed with incomplete RPMI, layered on 5 mL of Lymphocyte separation medium and centrifuged at 400 g for 20 min at room temperature. Buffy layer was collected and mixed with incomplete RPMI and centrifuged at 4° C. for 10 min at 300 g. Cells were obtained after the RBCs (if any) lysis using hypotonic solution, and washed at 4° C. for 10 min at 300 g. The cells were then suspended in complete RPMI containing 5% FBS and their concentration was adjusted to 2×10^6 cells/mL for T-cell proliferation assay.
Cell proliferation assay was conducted through standard thymidine incorporation technique. Briefly, isolated T-cells from peripheral blood of healthy individuals were plated at a concentration of 2×10^6 cells/mL in a round bottom 96-well tissue culture plates. Cells were stimulated with 7.5 μg/mL of PHA. […] The plate was then incubated for 72 hours at 37° C. in 5% CO2 incubator. After 72 hours, cultures were pulsed with 0.5 μCi/well tritiated thymidine (Amersham Pharmacia Biotech), and further incubated for 18 h. Cells were harvested onto a glass fiber filters using cell harvester (Innotech, Dottikon, Switzerland). The level of the thymidine incorporated into the cells was measured by a liquid scintillation counter (LS 6500, Beckman Coulter, Fullerton, Calif., USA). Results were expressed as mean count per minute (CPM). The inhibitory activity of compounds on T-lymphocyte proliferation was calculated using the following formula: […]

Experiment [4] has as its system serum TNF-α. The experiment is described as follows: Adjuvant induced arthritis model, serum TNF-α. It is filed as in vivo, Sprague Dawley rats. To be noted: AIA rats, daily intraperitoneal; Patuletin 25 mg/kg, indomethacin 5 mg/kg. The protocol: (§1) All studies were carried out using Female Sprague Dawley (SD) rats weighing 150-250 gms. Animals were kept at 21±2° C. and on a 12-h light/dark cycle, received standardized pelleted diet and tap water. Experiments were performed under the ethical guidelines of the International Association for the study of pain in conscious animals. Each group contains 12 animals with randomly distributed weights into each treatment group.
(§2) Arthritis was induced by injecting freshly prepared 100 μL of 1 mg suspension of lyophilized Mycobacterium tuberculosis H37Ra (MT H37Ra; DIFCO Laboratories, Detroit, Mich., USA), subcutaneously at the rat tail base using sterile hypodermic needle. Inoculation was carried out under anesthesia with a combination of 20 mg/kg ketamine and 5 mg/kg xylazine, injected intraperitoneally. Compound and the reference drug were administered daily, intraperitoneally using sterile syringes. The positive control received vehicle (5% DMSO+PBS) or saline only; treatment groups received test compounds (25 mg/kg), whereas reference group received indomethacin (5 mg/kg). The doses of the test compounds were selected after preliminary dose finding studies. […]
(§3) The quantitative measurement of TNF-α and IL-1β was done in serum of all groups of animals including arthritic and non-arthritic using commercial ELISA assay kits (Abcam, USA) according to the manufacturer's instructions. […]

The subject of experiment [5] is serum IL-1β. Description: Adjuvant induced arthritis model, serum IL-1β. To be noted: AIA rats, daily intraperitoneal; Patuletin 25 mg/kg, indomethacin 5 mg/kg. The experiment is classed as in vivo, Sprague Dawley rats. As for the experimental part: as §1, §2, §3

≈ marks a conversion by molar mass, not a printed value. Entries after “also recorded” stand apart in the source; their conditions may differ.

With `COc1c(O)cc2oc(-c3ccc(O)c(O)c3)c(O)c(=O)c2c1O` [Patuletin, 3,5,7,3′,4′-pentahydroxy-6-methoxy flavones], the IC50 came out at 2.5 µg/mL (≈ 7.52 µM) in experiment [1], 1.9 µg/mL in experiment [2] and 1.2 µg/mL (≈ 3.61 µM) in experiment [3]. In experiment [4], the “level of TNF-α in serum versus arthritic control group” value was “marked decrease”. For the same molecule, the “level of IL-1β in serum versus arthritic control group” value in experiment [5] is “significant decrease; also recorded: marked decrease”.

Source of the values: patent US20150025131A1 (priority 2013, published 2015).
